Reference: PubChem BioAssay (NCI)
Where “and” joins values, the source holds several entries; their conditions need not be identical. Equal values may be shown once.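 Cells were grown in 96-well plates and exposed to each compound for 48 hours at five concentrations; endpoints were interpolated linearly between bracketing concentrations, or set to the highest concentration if not reached. At the GI50, growth is halved. TGI denotes the concentration required for complete inhibition of growth.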

Key:
Assay in all cases: growth of human tumour cells (NCI), 48 h
UO-31 renal = tested on: UO-31 renal
NCI-H23 lung = tested on: NCI-H23 lung
U251 CNS = tested on: U251 CNS
SNB-75 CNS = tested on: SNB-75 CNS
DU-145 prostate = tested on: DU-145 prostate
SNB-19 CNS = tested on: SNB-19 CNS
HCT-116 colon = tested on: HCT-116 colon
OVCAR-3 ovarian = tested on: OVCAR-3 ovarian
ACHN renal = tested on: ACHN renal
SK-OV-3 ovarian = tested on: SK-OV-3 ovarian

## Clc1cc2c(c(CSc3nc4ccccc4n4cccc34)c1)OCOC2
UO-31 renal
  GI50: > 100 µM
  TGI: > 100 µM
NCI-H23 lung
  GI50: 26.3 µM
  TGI: > 100 µM
U251 CNS
  GI50: 17.1 µM
  TGI: > 100 µM
SNB-75 CNS
  GI50: 6.48 µM
  TGI: 26.8 µM
DU-145 prostate
  GI50: > 100 µM
  TGI: > 100 µM
SNB-19 CNS
  GI50: 41 µM
  TGI: > 100 µM
HCT-116 colon
  GI50: > 100 µM
  TGI: > 100 µM
OVCAR-3 ovarian
  GI50: 7.5 µM
  TGI: > 100 µM
ACHN renal
  GI50: 67.3 µM
  TGI: > 100 µM
SK-OV-3 ovarian
  GI50: 13.7 µM
  TGI: 45 µM

## CCN1CCN(c2cc(C)c3cc(NC(=O)c4ccc(OC)c(OC)c4)ccc3n2)CC1
UO-31 renal
  GI50: > 37.4 µM
  TGI: > 73.2 µM
NCI-H23 lung
  GI50: 50.5 µM
  TGI: > 100 µM
U251 CNS
  GI50: > 50.5 µM
  TGI: > 100 µM
SNB-75 CNS
  GI50: 5.54 µM
  TGI: > 61.3 µM
DU-145 prostate
  GI50: > 60.6 µM
  TGI: > 100 µM
SNB-19 CNS
  GI50: > 61 µM
  TGI: > 100 µM
HCT-116 colon
  GI50: 3.16 µM
  TGI: > 100 µM
OVCAR-3 ovarian
  GI50: 0.528 µM
  TGI: 20.1 µM
ACHN renal
  GI50: > 34.4 µM
  TGI: > 100 µM
SK-OV-3 ovarian
  GI50: > 30.1 µM
  TGI: > 73.3 µM

## NNC(=O)CNc1cccc(Br)c1
UO-31 renal
  TGI: > 100 µM
NCI-H23 lung
  TGI: > 100 µM
U251 CNS
  TGI: > 100 µM
SNB-75 CNS
  TGI: > 100 µM
DU-145 prostate
  TGI: > 100 µM
SNB-19 CNS
  TGI: > 100 µM
HCT-116 colon
  TGI: > 100 µM
OVCAR-3 ovarian
  TGI: > 100 µM
ACHN renal
  TGI: > 100 µM
SK-OV-3 ovarian
  TGI: > 100 µM

## O=C(Cc1ccc(F)c(Cl)c1)Nc1cc(C2(C(F)(F)F)CC2)nn1CC1CCCCC1
UO-31 renal
  GI50: 2.9 µM
  TGI: 9.65 µM
NCI-H23 lung
  GI50: 3.52 µM
  TGI: 12 µM
U251 CNS
  GI50: 5.13 µM
  TGI: > 15 µM
SNB-75 CNS
  GI50: 0.808 µM
  TGI: 5.99 µM
DU-145 prostate
  GI50: 5.39 µM
  TGI: > 15 µM
SNB-19 CNS
  GI50: 4.78 µM
  TGI: > 15 µM
HCT-116 colon
  GI50: 3.88 µM
  TGI: > 15 µM
OVCAR-3 ovarian
  GI50: 3.81 µM
  TGI: > 15 µM
ACHN renal
  GI50: 4.22 µM
  TGI: 13.9 µM
SK-OV-3 ovarian
  GI50: 3.24 µM
  TGI: 11 µM

## CN1CCN(c2ccc(Nc3cc(-c4cccc(-n5ccc6cc(C7CC7)cc(F)c6c5=O)c4CO)cn(C)c3=O)nc2)CC1
UO-31 renal
  GI50: 1.72 µM
  TGI: 3.46 µM
NCI-H23 lung
  GI50: 13.6 µM
  TGI: 37.3 µM
U251 CNS
  GI50: 3.47 µM
  TGI: 14 µM
SNB-75 CNS
  GI50: 1.33 µM
  TGI: 2.96 µM
DU-145 prostate
  GI50: 7.9 µM
  TGI: 22 µM
SNB-19 CNS
  GI50: 3.15 µM
  TGI: 15.4 µM
HCT-116 colon
  GI50: 3.31 µM
  TGI: 18.9 µM
OVCAR-3 ovarian
  GI50: 3.12 µM
  TGI: 8.8 µM
ACHN renal
  GI50: 1.84 µM
  TGI: 3.76 µM
SK-OV-3 ovarian
  GI50: 14.6 µM
  TGI: 29.5 µM

## O=C(c1ccco1)c1c(C(F)(F)F)nc2ccc(Cl)cc2[n+]1[O-]
UO-31 renal
  GI50: > 100 µM
  TGI: > 100 µM
NCI-H23 lung
  GI50: 69.5 µM
  TGI: > 100 µM
U251 CNS
  GI50: > 100 µM
  TGI: > 100 µM
SNB-75 CNS
  GI50: 54 µM
  TGI: > 100 µM
DU-145 prostate
  GI50: > 100 µM
  TGI: > 100 µM
SNB-19 CNS
  GI50: > 100 µM
  TGI: > 100 µM
HCT-116 colon
  GI50: > 100 µM
  TGI: > 100 µM
OVCAR-3 ovarian
  GI50: > 100 µM
  TGI: > 100 µM
ACHN renal
  GI50: > 100 µM
  TGI: > 100 µM
SK-OV-3 ovarian
  GI50: > 100 µM
  TGI: > 100 µM

## CC(=O)ON1CCCC(P(=O)(OCCSC(=O)C(C)(C)C)OCCSC(=O)C(C)(C)C)C1=O (stereo not drawn)
UO-31 renal
  GI50: 0.413 µM
  TGI: 11.3 µM
NCI-H23 lung
  GI50: 3.3 µM
  TGI: 28.5 µM
U251 CNS
  GI50: 1.02 µM
  TGI: 64.3 µM
SNB-75 CNS
  GI50: 1.4 µM
  TGI: 23.3 µM
DU-145 prostate
  GI50: 3.08 µM
  TGI: > 100 µM
SNB-19 CNS
  GI50: 1.76 µM
  TGI: 21.9 µM
HCT-116 colon
  GI50: 0.613 µM
  TGI: 12.7 µM
OVCAR-3 ovarian
  GI50: 1.19 µM
  TGI: 20.5 µM
ACHN renal
  GI50: 1.75 µM
  TGI: 30.4 µM
SK-OV-3 ovarian
  GI50: 2.86 µM
  TGI: 88 µM

## O=C(NC[C@H](O)CN1CCc2ccccc2C1)c1cc(NC2COC2)ncn1
UO-31 renal
  GI50: 11.8 µM
  TGI: 97.1 µM
NCI-H23 lung
  GI50: 19.3 µM
  TGI: > 100 µM
U251 CNS
  GI50: 13 µM
  TGI: > 100 µM
SNB-75 CNS
  GI50: 12.5 µM
  TGI: 64.5 µM
DU-145 prostate
  GI50: 18.3 µM
  TGI: > 100 µM
SNB-19 CNS
  GI50: 11.9 µM
  TGI: 98 µM
HCT-116 colon
  GI50: 22.7 µM
  TGI: > 100 µM
OVCAR-3 ovarian
  GI50: 10.8 µM
  TGI: 49.1 µM
ACHN renal
  GI50: 25.1 µM
  TGI: > 100 µM
SK-OV-3 ovarian
  GI50: 77.2 µM
  TGI: > 100 µM

## O=c1oc2ccc(-c3ccc(F)cc3F)cc2c(=O)n1-c1cccc(C(F)(F)F)c1
UO-31 renal
  GI50: 1.38 µM
  TGI: 8.22 µM
NCI-H23 lung
  GI50: 0.687 µM
  TGI: 3.59 µM
U251 CNS
  GI50: 1.73 µM
  TGI: 12.7 µM
SNB-75 CNS
  GI50: 1.33 µM
  TGI: 3.78 µM
DU-145 prostate
  GI50: 2.79 µM
  TGI: 16.4 µM
SNB-19 CNS
  GI50: 1.83 µM
  TGI: > 100 µM
HCT-116 colon
  GI50: 1.33 µM
  TGI: 3.45 µM
OVCAR-3 ovarian
  GI50: 0.784 µM
  TGI: 12.8 µM
ACHN renal
  GI50: 2.25 µM
  TGI: 8.37 µM
SK-OV-3 ovarian
  GI50: 1.02 µM
  TGI: 4.54 µM

## CCC(C)(C)c1ccc(OCCCCNC(=O)c2ccc3ccccc3c2O)c(C(C)(C)CC)c1
UO-31 renal
  TGI: > 100 µM
NCI-H23 lung
  TGI: > 100 µM
U251 CNS
  TGI: > 100 µM
SNB-75 CNS
  TGI: > 100 µM
DU-145 prostate
  TGI: > 100 µM
SNB-19 CNS
  TGI: > 100 µM
HCT-116 colon
  TGI: > 100 µM
OVCAR-3 ovarian
  TGI: 73.2 µM
ACHN renal
  TGI: > 100 µM
SK-OV-3 ovarian
  TGI: > 100 µM

## COC(=O)[C@]12CC[C@@H](C)[C@H](C)[C@@H]1C1=CC[C@@H]3[C@@]4(C)C[C@@H](O)[C@H](O)[C@@](C)(CO)C4=CC[C@@]3(C)[C@]1(C)CC2
UO-31 renal
  GI50: 14.6 µM
  TGI: 30.1 µM
NCI-H23 lung
  GI50: 16.2 µM
  TGI: 33.6 µM
U251 CNS
  GI50: 16.5 µM
  TGI: 34.1 µM
SNB-75 CNS
  GI50: 14.3 µM
  TGI: 28 µM
DU-145 prostate
  GI50: 16.3 µM
  TGI: 32.6 µM
SNB-19 CNS
  GI50: 18 µM
  TGI: 38.5 µM
HCT-116 colon
  GI50: 19 µM
  TGI: 37.2 µM
OVCAR-3 ovarian
  GI50: 18.3 µM
  TGI: 37.8 µM
ACHN renal
  GI50: 17.7 µM
  TGI: 33.8 µM
SK-OV-3 ovarian
  GI50: 19.7 µM
  TGI: 34.4 µM

## CCCC(=O)Nc1cn(COC)c(C(=O)N2C[C@@H]3C[C@]34C2=CC(=O)c2[nH]cc(C)c24)n1
UO-31 renal
  GI50: 16.9 µM
  TGI: 30.3 µM and 57.3 µM
NCI-H23 lung
  TGI: 14.7 µM and 6.4 µM
U251 CNS
  GI50: 4.93 µM
  TGI: 50 µM and 21.1 µM
SNB-75 CNS
  GI50: 14.3 µM
  TGI: 23.1 µM and 28.6 µM
DU-145 prostate
  GI50: 3.99 µM
  TGI: 12.7 µM and > 100 µM
SNB-19 CNS
  GI50: 10.7 µM
  TGI: 50 µM and 30.9 µM
HCT-116 colon
  TGI: 50 µM and 82.4 µM
OVCAR-3 ovarian
  GI50: 2.98 µM
  TGI: 27.2 µM and 7.03 µM
ACHN renal
  GI50: 2.16 µM
  TGI: 50 µM and 6.82 µM
SK-OV-3 ovarian
  GI50: 13.7 µM
  TGI: 28.2 µM and 29.4 µM

## NS(=O)(=O)c1ccc(N=Nc2c(O)c(C(=O)O)cc3ccccc23)cc1
UO-31 renal
  TGI: > 100 µM
NCI-H23 lung
  TGI: > 100 µM
U251 CNS
  TGI: > 100 µM
SNB-75 CNS
  TGI: > 100 µM
DU-145 prostate
  TGI: > 100 µM
SNB-19 CNS
  TGI: > 90.3 µM
HCT-116 colon
  TGI: > 100 µM
OVCAR-3 ovarian
  TGI: > 100 µM
ACHN renal
  TGI: > 100 µM
SK-OV-3 ovarian
  TGI: > 100 µM

## Cc1c(N(C)C)ccc2c(=O)c3cccc(CC(=O)O)c3oc12
UO-31 renal
  TGI: > 100 µM
NCI-H23 lung
  TGI: > 100 µM
U251 CNS
  TGI: > 100 µM
SNB-75 CNS
  TGI: > 100 µM
DU-145 prostate
  TGI: > 100 µM
SNB-19 CNS
  TGI: > 69 µM
HCT-116 colon
  TGI: > 100 µM
OVCAR-3 ovarian
  TGI: > 100 µM
ACHN renal
  TGI: > 100 µM
SK-OV-3 ovarian
  TGI: > 100 µM
